Laboratory results reported in article PMC9697031, “Identification of Novel Diarylpyrimidines as Potent HIV-1 Non-Nucleoside Reverse Transcriptase Inhibitors by Exploring the Primer Grip Region” (Pharmaceuticals, 2022).
Where two headings read alike, the source gives them in different places.

Assays:
WT HIV-1 strain (IIIB) [1] = system: WT HIV-1 strain (IIIB); parameters: method as in PMID 35061384; details: MT-4 cells, WT HIV-1 IIIB; used for comparison ref 5; cited from earlier work
[2] = system: HIV-1 K103N mutant strain; assay: microbe, parasite or virus in culture; type: cell-based; details: for EC50: Human immunodeficiency virus 1, MT4, read-out: EC50 K103N; for Resistance Folds K103N: RF, EC50 (K103N)/EC50 (WT)
Procedure: (§1) Stock solutions (10 × final concentration) of test compounds were added in 25 μL volumes to two series of triplicate wells to allow simultaneous evaluation of their effects on mock- and HIV-infected cells at the beginning of each experiment.

in vitro = details: human
Procedure: as §1

[3] = system: HIV-1 Y188L mutant strain; assay: Anti-HIV-1 mutant strain Y188L in MT-4 cells, MTT method; type: cell-based; details: Human immunodeficiency virus 1, MT4, read-out: EC50 Y188L
Procedure: (§2) Evaluation of the anti-HIV activity and cytotoxicity of the target compounds was performed by utilizing the MTT method in MT-4 cells described previously [37]. Stock solutions (10 × final concentration) of test compounds were added in 25 μL volumes to two series of triplicate wells to allow simultaneous evaluation of their effects on mock- and HIV-infected cells at the beginning of each experiment. Serial five-fold dilutions of test compounds were prepared directly in flat-bottomed 96-well microtiter trays by adding 100 μL medium to the 25 μL stock solution and transferring 25 μL of this solution to another well that contained 100 μL medium using a Biomek 3000 robot (Beckman Instruments, Fullerton, CA). Each sample includes untreated control HIV- and mock-infected cell samples. WT HIV-1 strain (IIIB), HIV-1 drug-resistant strains including L100I, K103N, Y181C, Y188L, E138K, K103N/Y181C, F227L/V106A or HIV-2 strain (ROD) stock (50 μL) at 100–300 CCID50 (50% cell culture infectious dose) or culture medium was added to either the infected or mock-infected wells of the microtiter tray. Mock-infected cells were used to evaluate the effect of test compounds on uninfected cells to evaluate their cytotoxicity. Exponentially growing MT-4 cells were centrifuged for 5 min at 1000 rpm, and the supernatant was discarded. […] After infection five days, the viability of mock- and HIV-infected cells was examined spectrophotometrically by the MTT assay.

[4] = system: HIV-1 F227L + V106A mutant strain; assay: Anti-HIV-1 double mutant F227L + V106A in MT-4 cells, MTT method; type: cell-based; details: Human immunodeficiency virus 1, MT4, read-out: EC50 F227L + V106A
Procedure: as §2

[5] = system: HIV-1 Y181C mutant strain; assay: Anti-HIV-1 mutant strain Y181C in MT-4 cells, MTT method; type: cell-based; details: Human immunodeficiency virus 1, MT4, read-out: EC50 Y181C
Procedure: as §2

WT HIV-1 strain (IIIB) [6] = assay: Anti-HIV-1 (IIIB, wild-type) activity in MT-4 cells, MTT method; type: cell-based; details: for SI (IIIB): selectivity index, CC50/EC50 (IIIB)
Procedure: as §1

[7] = system: HIV-1 RES056 (K103N/Y181C) mutant strain; assay: Anti-HIV-1 double mutant RES056 in MT-4 cells, MTT method; type: cell-based; details: Human immunodeficiency virus 1, MT4, read-out: EC50 RES056
Procedure: as §2

[8] = system: HIV-1 E138K mutant strain; assay: Anti-HIV-1 mutant strain E138K in MT-4 cells, MTT method; type: cell-based; details: Human immunodeficiency virus 1, MT4, read-out: EC50 E138K
Procedure: as §2

[9] = system: HIV-1 L100I mutant strain; assay: Anti-HIV-1 mutant strain L100I in MT-4 cells, MTT method; type: cell-based; details: Human immunodeficiency virus 1, MT4, read-out: EC50 L100I
Procedure: as §2

HIV-1 WT RT [10] = molecular target: T1, HIV-1 WT RT (Human immunodeficiency virus type 1 group M subtype B, UniProt P04585); assay: HIV-1 RT inhibition assay (Roche kit, ELISA); type: biochemical
T1 construct: The RT is a heterodimer consisting of two subunits, p66 (560 residues) and p51 (440 residues); purchased Roche
Procedure: An HIV-1 reverse transcriptase (RT) assay kit produced by Roche was used for the RT inhibition assay. All the reagents for performing the RT reaction came from the kit, and the ELSIA procedures for RT inhibition assay were conducted following the description in the kit protocol [38]. […] Then used, a washing buffer was used to remove the unbound dNTPs, and an anti-DIG-POD working solution was added. […] The unbound anti-DIG-PODs were removed, and the peroxidesubstrate (ABST) solution was added to the MTPs. A colored reaction proceeds during the cleavage of the substrate catalyzed by POD. […] The percentage inhibitory activity of RT inhibitors was calculated by the formula given below: % Inhibition = [O.D. value with RT but without inhibitors − O.D. value with RT and inhibitors]/[O.D. value with RT and inhibitors − O.D. value without RT and inhibitors].

HIV-2 strain (ROD) = assay: Anti-HIV-2 (ROD) activity in MT-4 cells, MTT method; type: cell-based; details: Human immunodeficiency virus 2, MT4, read-out: EC50 ROD
Procedure: as §1

HIV-1 WT RT [11] = molecular target: T1, HIV-1 WT RT; parameters: method as in PMID 35061384; details: incorporation of biotin-dUTP; used for comparison ref 5; cited from earlier work
[12] = Human immunodeficiency virus 1, IIIB, MT4, read-out: EC50 IIIB, MT-4 cells, WT HIV-1 IIIB, MTT

| SMILES | EC50 (WT HIV-1 strain (IIIB) [1]) | EC50 [2] | Resistance Folds K103N [2] | melting point | CC50 at 5 days (in vitro) | EC50 [3] | EC50 [4] | EC50 [5] | EC50 (WT HIV-1 strain (IIIB) [6]; [12]) | SI (IIIB) (WT HIV-1 strain (IIIB) [6]) | EC50 [7] | EC50 [8] | EC50 [9] | IC50 (HIV-1 WT RT [10]) | EC50 (HIV-2 strain (ROD)) | IC50 (HIV-1 WT RT [11]) | EC50 (WT HIV-1 strain (IIIB) [6]; read-out: EC50 IIIB, MT-4 cells, WT HIV-1 IIIB, MTT) |
| --- | --- | --- | --- | --- | --- | --- | --- | --- | --- | --- | --- | --- | --- | --- | --- | --- | --- |
| Cc1cc(/C=C/C#N)cc(C)c1Nc1ccnc(Nc2ccc(C#N)cc2)n1 [RPV, rilpivirine] | 1 ± 0.27 nM | – | – | – | – | – | – | – | – | – | – | – | – | – | – | – | – |
| Cc1cc(COc2ccccc2)cc(C)c1Oc1ccnc(Nc2ccc(C#N)cc2)n1 [TF1, 4-((4-(2,6-dimethyl-4-(phenoxymethyl)phenoxy)pyrimidin-2-yl)amino) benzonitrile] | – | 50.7 ± 9.6 nM | 3.00 | 179 to 182 °C | > 296000 nM | 1520 ± 92.1 nM | 1710 ± 581 nM | 515 ± 60.4 nM | 17.1 ± 2.3 nM | >17,326.7 | 6850 ± 1170 nM | 76.5 ± 9.4 nM | 221 ± 53.5 nM | 62 nM | > 296000 nM | – | – |
| Cc1cc(COc2ccc(NC(=O)OC(C)(C)C)cc2)cc(C)c1Oc1ccnc(Nc2ccc(C#N)cc2)n1 [TF16, (4-((4-((2-((4-cyanophenyl)amino)pyrimidin-4-yl)oxy)-3,5-dimethylbenzyl)oxy)phenyl)carbamic acid tert-butyl ester] | – | 132 ± 28.4 nM | 2.93 | 184 to 187 °C | 6200 ± 220 nM | > 6200 nM | ≥ 1620 nM | 1270 ± 154 nM | 45.3 ± 14.1 nM | 136.7 | > 6200 nM | 246 ± 30.4 nM | 715 ± 184 nM | 160 ± 1 nM | > 6200 nM | – | – |
| Cc1cc(COc2cccc(CO)c2)cc(C)c1Oc1ccnc(Nc2ccc(C#N)cc2)n1 [TF9, 4-((4-(4-((3-(hydroxymethyl)phenoxy)methyl)-2,6-dimethylphenoxy)pyrimidin-2-yl)amino)benzonitrile] | – | 120 ± 18.2 nM | 3.87 | 147 to 150 °C | 3460 ± 375 nM | 1100 ± 95.7 nM | 1000 ± 29.6 nM | 499 ± 44.6 nM | 30.5 ± 4 nM | 113.3 | 1590 ± 87.5 nM | 147 ± 12 nM | 308 ± 46.3 nM | 53 nM | > 3460 nM | – | – |
| Cc1cc(C#N)cc(C)c1Oc1nc(Nc2ccc(C#N)cc2)nc(N)c1Br [ETR, etravirine, reference compound] | – | 3 ± 0.3 nM | – | – | > 4590 nM | 18.1 ± 3.2 nM | 20.4 ± 7.8 nM | 11.1 ± 1.3 nM | 3 nM | >1578.9 | 29.5 ± 4.8 nM | 6.3 ± 1.2 nM | 5.9 ± 1 nM | – | – | 11 nM | 2.9 ± 0.4 nM |
| Cc1cc(COc2cncc(C#N)c2)cc(C)c1Oc1ccnc(Nc2ccc(C#N)cc2)n1 [TF13, 5-((4-((2-((4-cyanophenyl)amino)pyrimidin-4-yl)oxy)-3,5-dimethylbenzyl)oxy) nicotinonitrile] | – | 28 ± 2.5 nM | 1.47 | 195 to 198 °C | 4770 ± 1560 nM | 1050 ± 66.8 nM | 1650 ± 19.9 nM | 265 ± 24.6 nM | 19.4 ± 3.4 nM | 246.4 | 1180 ± 68.2 nM | 57.7 ± 11.6 nM | 125 ± 5.9 nM | 59 ± 1 nM | > 4770 nM | – | – |
| Cc1cc(COc2cccnc2C#N)cc(C)c1Oc1ccnc(Nc2ccc(C#N)cc2)n1 [TF12, 3-((4-((2-((4-cyanophenyl)amino)pyrimidin-4-yl)oxy)-3,5-dimethylbenzyl)oxy) picolinonitrile] | – | 34.7 ± 8.8 nM | 4.49 | 245 to 248 °C | 2460 ± 198 nM | ≥ 1560 nM | 742 ± 145 nM | 384 ± 75.5 nM | 7.8 ± 0.8 nM | 316.9 | > 2460 nM | 46.2 ± 7.1 nM | 246 ± 54.6 nM | 38 ± 4 nM | > 2460 nM | – | – |
| COc1cccc(OCc2cc(C)c(Oc3ccnc(Nc4ccc(C#N)cc4)n3)c(C)c2)c1 [TF6, 4-((4-(4-((3-methoxyphenoxy)methyl)-2,6-dimethylphenoxy)pyrimidin-2-yl)amino)benzonitrile] | – | 91.2 ± 14.4 nM | 2.60 | 149 to 152 °C | 6900 ± 249 nM | 1390 ± 83.6 nM | 1100 ± 281 nM | 387 ± 87.4 nM | 35.3 ± 4.1 nM | 195.6 | > 6900 nM | 149.7 ± 0.7 nM | 156 ± 16.8 nM | 52 ± 4 nM | > 6900 nM | – | – |
| Cc1cc(COc2ccc(F)nc2)cc(C)c1Oc1ccnc(Nc2ccc(C#N)cc2)n1 [TF14, 4-((4-(4-(((6-fluoropyridin-3-yl)oxy)methyl)-2,6-dimethylphenoxy)pyrimidin-2-yl)amino)benzonitrile] | – | 36.7 ± 3.7 nM | 1.54 | 185 to 188 °C | 24400 nM | 774 ± 39.2 nM | 999 ± 126 nM | 286 ± 52.1 nM | 23.6 ± 3.8 nM | 1034.6 | 1190 ± 182 nM | 67.4 ± 8.1 nM | 185 ± 11.6 nM | 41 ± 3 nM | > 24400 nM | – | – |
| Cc1cc(COc2cccnc2)cc(C)c1Oc1ccnc(Nc2ccc(C#N)cc2)n1 [TF11, 4-((4-(2,6-Dimethyl-4-((pyridin-3-yloxy)methyl)phenoxy)pyrimidin-2-yl)amino) benzonitrile] | – | 444 ± 68.6 nM | 2.23 | 237 to 240 °C | 14800 nM | > 14800 nM | > 14800 nM | > 14800 nM | 199 ± 13 nM | 74.5 | > 14800 nM | ≥ 3020 nM | 9574 ± 22.2 nM | 483 ± 30 nM | > 14800 nM | – | – |
